The conditions of data set [1]: Imitrex tablets, cited from earlier work.
A short description of data set [2]: Pharmacokinetic two period crossover study of oral sumatriptan with or without anamorelin hydrochloride. Format: in vivo. As to conditions: both sexes, human, plasma, 25 mg/dose. The protocol:
The study was a two period crossover study in 22 healthy, normal men and women ages 18-45 years, conducted in open label format. […] Subjects were fasted overnight with a seven day wash out period between periods. […] All samples were analyzed using a validated bioanalytical method (LC-MS-MS).

Like-named read-outs stand apart in the source and are kept apart here.

The term Cmax denotes the peak of the concentration-time curve. By Tmax is commonly meant the time at which the peak concentration occurs. Regarding `CNS(=O)(=O)Cc1ccc2[nH]cc(CCN(C)C)c2c1` [Sumatriptan, 1-[3-(2-dimethylaminoethyl)-1H-indol-5-yl]-N-methyl-methanesulfonamide], the “time after administration until maximum blood concentrations are reached” value in data set [1] (during a migraine attack) is 2.5 h. For the same molecule, the “time after administration to reach maximum concentration in the plasma (average)” value in data set [1] (healthy adults) is 2.0 h. Besides, the AUC(0-t) in data set [2] (plasma sumatriptan, sumatriptan succinate 25 mg oral tablet, alone or with anamorelin HCl 100 mg oral, fasted healthy subjects, N = 22, read-out: AUC 0-30, Mean) was determined as 2.53 ng·h/mL; in data set [2] (plasma sumatriptan, sumatriptan succinate 25 mg oral tablet, alone or with anamorelin HCl 100 mg oral, fasted healthy subjects, N = 22, read-out: AUC 0-30, Median), 2.56 ng·h/mL; in data set [2] (read-out: AUC last, Mean), 45.6 ng·h/mL. In addition, the Cmax in data set [2] (plasma sumatriptan, sumatriptan succinate 25 mg oral tablet, alone or with anamorelin HCl 100 mg oral, fasted healthy subjects, N = 22, read-out: Cmax, Mean) was 20.3 ng/mL; in data set [2] (plasma sumatriptan, sumatriptan succinate 25 mg oral tablet, alone or with anamorelin HCl 100 mg oral, fasted healthy subjects, N = 22, read-out: Cmax, Median) it was 20.4 ng/mL. Also, the time of peak concentration (Tmax) in data set [2] (plasma sumatriptan, sumatriptan succinate 25 mg oral tablet, alone or with anamorelin HCl 100 mg oral, fasted healthy subjects, N = 22, read-out: Tmax, Mean (converted)) was 1.12 h; in data set [2] (plasma sumatriptan, sumatriptan succinate 25 mg oral tablet, alone or with anamorelin HCl 100 mg oral, fasted healthy subjects, N = 22, read-out: Tmax, Median (converted)), 0.883 h.

The record behind these values is patent US8673947B2, “Enhanced migraine treatments based on ghrelin mimetics” (Helsinn Therapeutics (U.S.), Inc., priority 2009, dated 2014).
